What was measured:
Format in all cases: functional
[1] = Anticancer activity against ovarian cancer cells; conditions: Homo sapiens, Cancer cell lines
[2] = Anticancer activity against colon cancer cells; conditions: Homo sapiens, Cancer cell lines
[3] = Anticancer activity against breast cancer cells; conditions: Homo sapiens, Cancer cell lines
[4] = Anticancer activity against prostate cancer cells; conditions: Homo sapiens, Cancer cell lines
[5] = Anticancer activity against human NCI60 cells; conditions: for CC50: read-out: LC50 (the source's name)
[6] = Anticancer activity against nonsmall lung cancer cells; conditions: Homo sapiens, Cancer cell lines
[7] = Anticancer activity against renal cancer cells; conditions: Homo sapiens, Cancer cell lines
[8] = Anticancer activity against melanoma cells; conditions: Homo sapiens, Melanoma cell
[9] = Anticancer activity against CNS cancer cells; conditions: Homo sapiens, Cancer cell lines
[10] = Anticancer activity against leukemia cells; conditions: Homo sapiens, Leukemia cell

SMILES	GI50 [1] [nM]	GI50 [2] [nM]	GI50 [3] [nM]	GI50 [4] [nM]	GI50 [5] [nM]	TGI [5] [nM]	CC50 [5] [nM]	GI50 [6] [nM]	GI50 [7] [nM]	GI50 [8] [nM]	GI50 [9] [nM]	GI50 [10] [nM]
O=C(c1ccc2ccccc2c1)c1c(C(F)(F)F)[n+]([O-])c2cc(C(F)(F)F)ccc2[n+]1[O-]	1690	1730	1670	1510	1580	3470	9330	1780	1550	1480	1720	1200
O=C(c1ccco1)c1c(C(F)(F)F)[n+]([O-])c2cc(Cl)c(Cl)cc2[n+]1[O-]	1650	500	1380	330	630	3090	11000	280	310	1570	790	270
O=C(c1cccs1)c1c(C(F)(F)F)[n+]([O-])c2ccc(F)cc2[n+]1[O-]	1170	920	1190	1510	1200	2880	9330	1680	1650	1510	1630	270
Cc1ccc2c(c1)[n+]([O-])c(C(=O)c1cccs1)c(C(F)(F)F)[n+]2[O-]	270	880	760	890	550	5500	33100	560	250	900	750	490
O=C(c1ccco1)c1c(C(F)(F)F)nc2cc(C(F)(F)F)ccc2[n+]1[O-]	40400	85400	38500	44700	46800	89100	> 100000	47700	34600	80600	24400	43600
O=C(c1ccc2ccccc2c1)c1c(C(F)(F)F)[n+]([O-])c2cc(Cl)c(Cl)cc2[n+]1[O-]	1510	1550	1620	1550	1580	3160	6170	1700	1640	1570	1630	1580
O=C(c1ccco1)c1c(C(F)(F)F)nc2ccc(C(F)(F)F)cc2[n+]1[O-]	29300	49800	34300	38500	37200	83200	> 100000	39400	28600	31500	25300	88100
O=C(c1ccco1)c1c(C(F)(F)F)[n+]([O-])c2ccccc2[n+]1[O-]	1450	510	760	200	410	5130	26900	350	330	670	400	70
O=C(c1ccccc1)c1c(C(F)(F)F)[n+]([O-])c2ccc(F)cc2[n+]1[O-]	1340	540	730	530	780	2510	9120	800	1140	950	1450	230
O=C(c1cccs1)c1c(C(F)(F)F)[n+]([O-])c2cc(F)c(F)cc2[n+]1[O-]	530	270	410	510	370	1620	9330	830	500	390	440	50
O=C(c1ccco1)c1c(C(F)(F)F)[n+]([O-])c2cc(F)c(F)cc2[n+]1[O-]	390	190	200	420	380	1480	7760	730	360	560	370	430
Cc1cc2c(cc1C)[n+]([O-])c(C(F)(F)F)c(C(=O)c1cccs1)[n+]2[O-]	2340	5310	3080	3890	3470	17400	61700	2810	4620	3990	3050	2710
O=C(c1ccc2ccccc2c1)c1c(C(F)(F)F)[n+]([O-])c2ccc(C(F)(F)F)cc2[n+]1[O-]	470	660	990	570	720	1910	5500	1420	580	970	950	260
O=C(c1ccc2ccccc2c1)c1c(C(F)(F)F)[n+]([O-])c2cc(F)c(F)cc2[n+]1[O-]	3800	1710	2360	1460	2190	6460	23400	3470	2180	2500	2510	770
COc1ccc2c(c1)[n+]([O-])c(C(=O)c1cccs1)c(C(F)(F)F)[n+]2[O-]	4990	7080	4920	2480	5010	29500	49000	3930	5110	5890	6240	4430
Cc1ccc2c(c1)[n+]([O-])c(C(=O)c1ccco1)c(C(F)(F)F)[n+]2[O-]	850	1170	660	240	660	3470	17800	470	580	880	740	260
O=C(c1ccco1)c1nc2cc(C(F)(F)F)ccc2[n+]([O-])c1C(F)(F)F	42500	41400	32000	51900	45700	97700	> 100000	48100	60600	42900	45500	51100
O=C(c1cccs1)c1c(C(F)(F)F)[n+]([O-])c2ccc(C(F)(F)F)cc2[n+]1[O-]	430	380	500	200	–	–	5500	450	310	900	480	200
O=C(c1ccco1)c1c(C(F)(F)F)[n+]([O-])c2ccc(C(F)(F)F)cc2[n+]1[O-]	720	570	570	420	600	1480	5010	760	430	1110	910	210
O=C(c1ccco1)c1c(C(F)(F)F)[n+]([O-])c2ccc(Cl)cc2[n+]1[O-]	560	210	280	110	320	2570	10000	360	200	490	770	190
O=C(c1ccc2ccccc2c1)c1c(C(F)(F)F)[n+]([O-])c2ccc(F)cc2[n+]1[O-]	1200	740	1700	1620	1150	2820	8320	1540	1480	1120	1610	440
O=C(c1ccc2ccccc2c1)c1c(C(F)(F)F)[n+]([O-])c2ccc(Cl)cc2[n+]1[O-]	1200	1290	1150	1480	1230	2630	5500	1510	1380	1230	1470	650
O=C(c1ccco1)c1c(C(F)(F)F)[n+]([O-])c2cc(C(F)(F)F)ccc2[n+]1[O-]	650	280	480	190	470	1200	3890	480	490	860	810	130
O=C(c1ccco1)c1nc2ccc(C(F)(F)F)cc2[n+]([O-])c1C(F)(F)F	43000	75100	59100	35100	47900	95500	> 100000	41900	49700	46100	35500	48400
O=C(c1ccccc1)c1c(C(F)(F)F)[n+]([O-])c2cc(C(F)(F)F)ccc2[n+]1[O-]	1180	1710	1410	1320	1290	2950	8320	1660	1470	1230	1710	770
O=C(c1cccs1)c1c(C(F)(F)F)[n+]([O-])c2ccc(Cl)cc2[n+]1[O-]	160	40	80	–	70	500	2190	70	30	120	90	70

From ChEMBL document CHEMBL1137558, “Synthesis and biological evaluation of new 2-arylcarbonyl-3-trifluoromethylquinoxaline 1,4-di-N-oxide derivatives and their reduced analogues” (2007)
